Series [1] in a line: Stability (suitability for use in a pharmaceutical composition). Conditions: hence unsuitable for use in a pharmaceutical composition.
In another series the test system is lung. Conditions: use of cytotoxic chemotherapeutic agents for cancer; cited from earlier work.
The nature of series [2]: Solubility of melatonin in water / aqueous solution. Conditions: straightforward attempts at dissolving melatonin in water. In kind it is physicochemical. How it is done:
The pharmaceutical composition of the present invention may be in the form of a powder, solution, emulsion, suspension, or micellar, microsphere, microcapsular, nanoparticulate or liposomal preparation. Melatonin and most of its analogues, derivatives and metabolites are only sparingly soluble in water, straightforward attempts at dissolving melatonin in water yielding a maximum melatonin concentration of only 0.1 mg/mL. Higher concentrations of melatonin are needed if aqueous preparations of melatonin are to be administered in a convenient manner, e.g. by the inhalation of an aerosol of the preparation, to the airways epithelium at the concentrations estimated to be necessary to exert a protective action against free radical damage. A method of achieving this is outlined below.
A further formulation is to supply the composition as a dry powder as described above in a capped vial, to be reconstituted as a solution for nebulization by adding a given volume of sterile water from a second vial, to be used within one hour. The water for dissolving the formulation may contain the empirically determined amount of salts and buffering ions to produce a solution of the composition that has a near-physiological pH and osmolarity with reference to plasma to avoid the provocation of cough and bronchoconstriction on inhalation. […]

Consider `COc1ccc(N)c(C(=O)CCNC(C)=O)c1` [N^1-acetyl-5-methoxykynuramine], for which the stability result in series [1] is on record as “unstable”. Bleomycin: the “overall rate of pulmonary damage” value in the series on lung was “over 40%”. Take `COc1ccc2[nH]cc(CCNC(C)=O)c2c1` [melatonin, N-acetyl-5-methoxytryptamine]: in series [2], the “maximum melatonin concentration in water” value was 0.1 mg/mL.

These data come from patent US11903925B2, “Compositions for preventing and treating pulmonary injury due to ionizing radiation or cytotoxic drugs” (RepoCeuticals A/S, priority 2015, dated 2024).
